{"source": "paper PMC5889090", "about": "(Journal of medicinal chemistry, 2017)", "key": {"[1]": {"test_system": "zebrafish neuromast hair cells", "assay": "Zebrafish neuromast hair cell protection assay", "conditions": "for protective activity (in words) / pEC50: 200 μM neomycin; for eudismic ratio (ER): HC50 of the less active versus the more active enantiomer"}, "[2]": {"assay": "In vitro toxicity against HepG2 cell line", "conditions": "human"}, "E. coli ATCC25922": {"test_system": "E. coli ATCC25922", "assay": "Interference with neomycin MIC/MBC", "assay_type": "cell-based"}, "CYP": {"test_system": "CYP", "assay": "CYP stability / inhibition"}, "Aqueous solubility": {"assay": "Aqueous solubility", "assay_type": "physicochemical"}, "[3]": {"assay": "Preliminary i.v. toxicity and plasma half-life in rats", "assay_type": "in vivo, rat"}, "[4]": {"assay": "Early / in vitro ADME profiling"}, "Sprague-Dawley rats": {"test_system": "Sprague-Dawley rats", "assay": "Rat ABR assay, kanamycin-induced hearing loss", "conditions": "kanamycin 500 mg/kg/day s.c. 14 days + compound 25 mg/kg/day i.p."}, "Air oxidation stability": {"assay": "Air oxidation stability", "assay_type": "physicochemical", "conditions": "oxidation to inactive, highly fluorescent byproduct"}, "hERG ion channel": {"target": "hERG ion channel (Homo sapiens, UniProt Q12809)", "sequence (Q12809 whole entry)": "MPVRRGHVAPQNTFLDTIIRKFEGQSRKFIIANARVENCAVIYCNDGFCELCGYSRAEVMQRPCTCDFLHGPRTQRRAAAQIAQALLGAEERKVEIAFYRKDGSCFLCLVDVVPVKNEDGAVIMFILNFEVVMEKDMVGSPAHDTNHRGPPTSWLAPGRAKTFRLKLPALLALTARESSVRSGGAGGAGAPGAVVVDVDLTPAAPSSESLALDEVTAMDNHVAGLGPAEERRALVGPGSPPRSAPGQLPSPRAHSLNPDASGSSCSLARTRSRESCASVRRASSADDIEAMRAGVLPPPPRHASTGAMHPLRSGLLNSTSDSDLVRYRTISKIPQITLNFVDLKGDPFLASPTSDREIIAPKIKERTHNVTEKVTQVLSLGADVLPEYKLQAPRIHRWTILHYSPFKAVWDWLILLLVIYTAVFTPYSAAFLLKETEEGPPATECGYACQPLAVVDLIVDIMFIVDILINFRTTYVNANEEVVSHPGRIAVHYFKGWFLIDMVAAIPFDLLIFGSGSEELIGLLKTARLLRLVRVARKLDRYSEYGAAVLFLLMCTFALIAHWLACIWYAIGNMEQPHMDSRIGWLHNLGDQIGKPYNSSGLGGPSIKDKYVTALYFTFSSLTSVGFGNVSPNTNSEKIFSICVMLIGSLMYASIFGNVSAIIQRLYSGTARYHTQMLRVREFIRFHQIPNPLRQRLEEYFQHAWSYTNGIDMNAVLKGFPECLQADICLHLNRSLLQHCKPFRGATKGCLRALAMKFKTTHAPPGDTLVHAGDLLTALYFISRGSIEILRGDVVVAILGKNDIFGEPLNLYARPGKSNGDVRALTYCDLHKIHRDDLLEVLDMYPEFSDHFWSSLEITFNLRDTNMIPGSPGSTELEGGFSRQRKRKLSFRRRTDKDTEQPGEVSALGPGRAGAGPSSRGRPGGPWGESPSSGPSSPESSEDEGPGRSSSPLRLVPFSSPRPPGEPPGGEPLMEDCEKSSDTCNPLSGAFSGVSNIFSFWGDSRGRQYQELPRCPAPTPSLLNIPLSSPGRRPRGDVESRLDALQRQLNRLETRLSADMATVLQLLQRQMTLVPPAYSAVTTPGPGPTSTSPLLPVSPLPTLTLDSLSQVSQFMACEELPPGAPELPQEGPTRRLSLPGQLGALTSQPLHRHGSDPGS", "assay": "cell-based"}, "M. tuberculosis": {"test_system": "M. tuberculosis", "assay": "Interference with amikacin MIC", "assay_type": "cell-based"}, "[5]": {"test_system": "five strains of P. aeruginosa", "assay": "Interference with aminoglycoside MIC", "assay_type": "cell-based"}, "[6]": {"conditions": "read-out: HC50, Tables 7, 8 and text, 50% hair cell protection"}}, "note": "pEC50, pIC50: −log10 of the molar value. Where two headings read alike, the source gives them in different places."}
{"compound": "2-amino-4,5,6,7-tetrahydrothieno[2,3-c]pyridine-3-carboxamide [compound 28]", "values": [{"measurement": "protective activity (in words)", "setting": "[1]", "result": "inactive"}]}
{"compound": "CCN1CCc2c(sc(NC(=O)Nc3ccc(Cl)cc3)c2C(N)=O)C1.Cl", "note": "[compound 1, 2-[3-(4-Chlorophenyl)ureido]-6-ethyl-4,5,6,7-tetrahydrothieno[2,3-c]pyridine-3-carboxamide]", "values": [{"measurement": "pIC50", "setting": "[2]", "result": "< 3.52"}, {"measurement": "interference with neomycin minimal bactericidal concentration (MBC)", "setting": "E. coli ATCC25922", "result": "no interference"}, {"measurement": "interference with neomycin minimal inhibitory concentration (MIC)", "setting": "E. coli ATCC25922", "result": "no interference"}, {"measurement": "CYP stability or inhibition", "setting": "CYP", "result": "no issues"}, {"measurement": "aqueous solubility (in words)", "setting": "Aqueous solubility", "result": "adequate"}, {"measurement": "half-life", "setting": "[3]; rat, plasma, iv, 25 mg/kg", "result": 1.7, "unit": "h"}, {"measurement": "toxicity i.v.", "setting": "[3]; rats, i.v., doses up to 25 mg/kg", "result": "non-toxic"}, {"measurement": "clearance profile (in words)", "setting": "[4]; early ADME characterization", "result": "acceptable"}, {"measurement": "membrane permeability (in words)", "setting": "[4]; early ADME characterization", "result": "adequate"}, {"measurement": "plasma protein binding (in words)", "setting": "[4]; early ADME characterization", "result": "reasonable"}, {"measurement": "protection from kanamycin-induced hearing loss (ABR)", "setting": "Sprague-Dawley rats; 8 and 16 kHz", "result": "completely prevented"}, {"measurement": "protection from kanamycin-induced hearing loss (ABR)", "setting": "Sprague-Dawley rats; 32 kHz", "result": "mostly resolved"}, {"measurement": "air oxidation", "setting": "Air oxidation stability", "result": "gradually undergo partial air oxidation"}]}
{"compound": "CCN1CCc2c(sc(NC(=O)NCc3cccc(Cl)c3)c2C(N)=O)C1.Cl", "note": "[compound 11]", "values": [{"measurement": "protective activity (in words)", "setting": "[1]", "result": "inactive"}]}
{"compound": "CCN1CCc2c(sc(NC(=O)NCC3CCCO3)c2C(N)=O)C1", "note": "(stereo not drawn) [compound 12]", "values": [{"measurement": "protective activity (in words)", "setting": "[1]", "result": "inactive"}]}
{"compound": "CCN1CCc2c(sc(NC(=O)NCCN3CCOCC3)c2C(N)=O)C1", "note": "[compound 13]", "values": [{"measurement": "protective activity (in words)", "setting": "[1]", "result": "inactive"}]}
{"compound": "CCN1CCc2c(sc(NC(=O)Nc3ccccc3)c2C(N)=O)C1.Cl", "note": "[compound 14]", "values": [{"measurement": "protective activity (in words)", "setting": "[1]", "result": "inactive"}]}
{"compound": "CCN1CCc2c(sc(NC(=O)Nc3cscc3C(=O)OC)c2C(N)=O)C1", "note": "[compound 15]", "values": [{"measurement": "protective activity (in words)", "setting": "[1]", "result": "inactive"}]}
{"compound": "CCN1CCc2c(sc(NC(=O)Nc3ccc(Cl)cc3)c2C(=O)O)C1.O=C(O)C(F)(F)F", "note": "[compound 16]", "values": [{"measurement": "protective activity (in words)", "setting": "[1]", "result": "greatly reduces the activity"}]}
{"compound": "CCN1CCc2c(sc(NC(=O)Nc3ccc(Cl)cc3)c2C(=O)OC)C1.Cl", "note": "[compound 17]", "values": [{"measurement": "protective activity (in words)", "setting": "[1]", "result": "greatly reduces the activity"}]}
{"compound": "CCN1CCc2c(sc(NC(=O)Nc3ccc(Cl)cc3)c2C(=O)NC)C1.Cl", "note": "[compound 18]", "values": [{"measurement": "protective activity (in words)", "setting": "[1]", "result": "greatly reduces the activity"}]}
{"compound": "CCN1CCc2c(sc(NC(=O)Nc3ccc(Cl)cc3)c2C#N)C1.Cl", "note": "[compound 19]", "values": [{"measurement": "protective activity (in words)", "setting": "[1]", "result": "greatly reduces the activity"}]}
{"compound": "CCN1CCc2c(sc(NC(=O)Nc3ccc(Cl)cc3)c2C(=O)N2CCOCC2)C1.Cl", "note": "[compound 20]", "values": [{"measurement": "protective activity (in words)", "setting": "[1]", "result": "greatly reduces the activity"}]}
{"compound": "CCN1CCc2c(sc(NC(=O)Nc3ccc(Cl)cc3)c2C(=O)c2nc(C)no2)C1.Cl", "note": "[compound 21]", "values": [{"measurement": "protective activity (in words)", "setting": "[1]", "result": "inactive"}]}
{"compound": "CCN1CCc2c(sc(NC(=O)Nc3ccc(Cl)cc3)c2C(=O)c2nnco2)C1.Cl", "note": "[compound 22]", "values": [{"measurement": "protective activity (in words)", "setting": "[1]", "result": "inactive"}]}
{"compound": "CCN1CCc2c(sc(NC(=O)CN3CCCCC3)c2C(N)=O)C1", "note": "[compound 27]", "values": [{"measurement": "protective activity (in words)", "setting": "[1]", "result": "no protective activity"}]}
{"compound": "CCN1CCc2c(sc(NC=O)c2C(N)=O)C1.Cl", "note": "[compound 29]", "values": [{"measurement": "protective activity (in words)", "setting": "[1]", "result": "no protective activity"}]}
{"compound": "CCN1CCc2c(sc(NC(=O)[C@@H]3CCCN3)c2C(N)=O)C1", "note": "[compound 30]", "values": [{"measurement": "protective activity (in words)", "setting": "[1]", "result": "no protective activity"}]}
{"compound": "CCN1CCc2c(sc(NC(=O)C3(C(=O)Nc4ccc(Cl)cc4)CC3)c2C(N)=O)C1", "note": "[compound 31]", "values": [{"measurement": "protective activity (in words)", "setting": "[1]", "result": "lack of potency"}]}
{"compound": "CCN1CCc2c(sc(NC(=O)c3ccccc3)c2C(N)=O)C1.Cl", "note": "[compound 32]", "values": [{"measurement": "protective activity (in words)", "setting": "[1]", "result": "no protective activity"}]}
{"compound": "CCN1CCc2c(sc(NC(=O)C3(c4ccc(Cl)cc4)CC3)c2C(N)=O)C1.Cl", "note": "[compound 33]", "values": [{"measurement": "protective activity (in words)", "setting": "[1]", "result": "no protective activity"}]}
{"compound": "CCN1CCc2c(ccc(NC(=O)Nc3ccc(Cl)cc3)c2C(N)=O)C1", "note": "[compound 38]", "values": [{"measurement": "protective activity (in words)", "setting": "[1]", "result": "no potency"}]}
{"compound": "NC(=O)c1c(NC(=O)Nc2ccc(Cl)cc2)sc2c1CCN(CC1CC1)C2", "note": "[compound 53]", "values": [{"measurement": "pIC50", "setting": "hERG ion channel", "result": 5.57}]}
{"compound": "NC(=O)c1c(NC(=O)Nc2ccc(Cl)cc2)sc2c1CCN(CC1CCC1)C2", "note": "[compound 54]", "values": [{"measurement": "pIC50", "setting": "hERG ion channel", "result": 6.14}]}
{"compound": "CC(C)(C)OC(=O)N1CCc2c(sc(NC(=O)Nc3ccc(Cl)cc3)c2C(N)=O)C1", "note": "[compound 59]", "values": [{"measurement": "protective activity (in words)", "setting": "[1]", "result": "completely suppressed"}]}
{"compound": "CC(C)(C)OC(=O)CN1CCc2c(sc(NC(=O)Nc3ccc(Cl)cc3)c2C(N)=O)C1", "note": "[compound 60]", "values": [{"measurement": "protective activity (in words)", "setting": "[1]", "result": "completely suppressed"}]}
{"compound": "CC(C)(C)OC(=O)CCCN1CCc2c(sc(NC(=O)Nc3ccc(Cl)cc3)c2C(N)=O)C1", "note": "[compound 62]", "values": [{"measurement": "pIC50", "setting": "hERG ion channel", "result": 5.42}]}
{"compound": "CC(C)C[N+]1(C)CCc2c(sc(NC(=O)Nc3ccc(Cl)cc3)c2C(N)=O)C1", "note": "(stereo not drawn) [compound 71]", "values": [{"measurement": "pIC50", "setting": "hERG ion channel", "result": 5.01}]}
{"compound": "C[N+]1(CC2CCCCC2)CCc2c(sc(NC(=O)Nc3ccc(Cl)cc3)c2C(N)=O)C1", "note": "(stereo not drawn) [compound 76]", "values": [{"measurement": "pIC50", "setting": "hERG ion channel", "result": "< 4.52"}]}
{"compound": "CC1(C)Cc2c(sc(NC(=O)Nc3ccc(Cl)cc3)c2C(N)=O)C(C)(C)N1.Cl", "note": "[compound 87]", "values": [{"measurement": "pIC50", "setting": "[2]", "result": "< 3.52"}, {"measurement": "CYP stability or inhibition", "setting": "CYP", "result": "no issues"}, {"measurement": "metabolic stability", "setting": "[4]; in vitro ADME profiling", "result": "excellent"}, {"measurement": "air oxidation", "setting": "Air oxidation stability", "result": "resistant to the oxidation pathway"}]}
{"compound": "CN1[C@@H]2CC[C@H]1c1sc(NC(=O)Nc3ccc(Cl)cc3)c(C(N)=O)c1C2.Cl", "note": "[compound 92]", "values": [{"measurement": "protective activity (in words)", "setting": "[1]", "result": "significantly reduced activity"}, {"measurement": "eudismic ratio (ER)", "setting": "[1]", "result": 26.7}]}
{"compound": "Cl.NC(=O)c1c(NC(=O)Nc2ccc(Cl)cc2)sc2c1C[C@H]1CC[C@@H]2N1", "note": "[compound 95]", "values": [{"measurement": "protective activity (in words)", "setting": "[1]", "result": "significantly reduced activity"}, {"measurement": "eudismic ratio (ER)", "setting": "[1]", "result": 14.7}]}
{"compound": "Cl.NC(=O)c1c(NC(=O)Nc2ccc(Cl)cc2)sc2c1[C@H]1CC[C@@H](C2)N1", "note": "[compound 98]", "values": [{"measurement": "protective activity (in words)", "setting": "[1]", "result": "significantly reduced activity"}]}
{"compound": "NC(=O)c1c(NC(=O)Nc2ccc(Cl)cc2)sc2c1[C@@H]1CC[C@H](C2)N1", "note": "[compound 99]", "values": [{"measurement": "pEC50", "setting": "[1]; Danio rerio, read-out: HC50, text", "result": 7.48}]}
{"compound": "(+)-2-[3-(4-Chlorophenyl)ureido]-9-methyl-5,6,7,8-tetrahydro-4H-5,8-epiminocyclohepta[b]thiophene-3-carboxamide [compound 90]", "values": [{"measurement": "interference in amikacin MIC", "setting": "M. tuberculosis", "result": "no interference"}, {"measurement": "pEC50", "setting": "[1]; [6]", "result": 6.92}, {"measurement": "interference with neomycin minimal inhibitory concentration (MIC)", "setting": "E. coli ATCC25922", "result": "no interference"}, {"measurement": "interference in MIC for tobramycin, amikacin, kanamycin and neomycin", "setting": "[5]", "result": "no interference"}]}
{"compound": "(+/−)-2-[3-(4-Chlorophenyl)ureido]-9-methyl-5,6,7,8-tetrahydro-4H-5,8-epiminocyclohepta[b]thiophene-3-carboxamide [compound 88]", "values": [{"measurement": "pEC50", "setting": "[1]; [6]", "result": 6.44}]}
{"compound": "(−)-2-[3-(4-Chlorophenyl)ureido]-9-methyl-5,6,7,8-tetrahydro-4H-5,8-epiminocyclohepta[b]thiophene-3-carboxamide [compound 89]", "values": [{"measurement": "protective activity (in words)", "setting": "[1]", "result": "significantly reduced activity"}, {"measurement": "pEC50", "setting": "[1]; [6]", "result": 5.65}]}
